From patent publication US7074807B2, “Compositions and methods for inducing cell death” (Georgetown University, priority 1998, dated 2006)

Tests used:
PCI-04A cells = assay: Apoptosis assay (annexin V-FITC/propidium iodide flow cytometry); details: 10 mM, PCI-04A
Protocol: FIGS. (7A1–7A3), (7B1–7B2), (7C1–7C3), (7D1–7D2), (7E1–7E3), (7F1–7F2). […] Cells were grown in serum-free medium overnight in T-25 flasks and treated with tempol (10 mM) or tempo (10 mM) for various times, trypsinized, and then resuspended in 200 ul 1× binding buffer as described in experimental procedures. The cell suspension was double-stained with annexin V-FITC and propidium iodide and analyzed by flow cytometry. Background signal was determined by comparison with double-stained, single-stained, or unstained control cells. (7A1–7A3), (7C1–7C3), and (7E1–7E3) are cytograms showing a relative distribution of viable (V), apoptotic (A), and necrotic (N) cells at 2 h following tempol or tempo treatment of MDA-MB 231 cells (A), PCI-04A cells (C), and PC-3 cells (E). (7B1–7B3), (7D1–7D2), and (7F1–7F2) are time course analyses of MDA-MB 231 cells (B), PCT-04A cells (D), and PC-3 cells (F). 100,000 cells were analyzed at each time point in triplicate (B) or quadruplicate (D and F). Solid bars, 1% ethanol, striped bars, 10 mM tempol, empty bars, 10 mM tempo. […] Data shown are representative from three to four independent experiments. (7B1–7B2), Time course analysis of MDA-MB 231 cells undergoing apoptosis (annexin V-FITC staining) (7B1), or necrosis (propidium iodide staining) (7B2). Values shown are mean±s.d. of triplicate determinations per time point in each treatment category, and representative of three to four independent experiments. […] (7D1–7D2), Time course analysis of PCI-04A cells undergoing apoptosis (annexin V-FITC staining) (7D1), or necrosis (propidium iodide staining) (7D2). Values shown are mean±s.d. of quadruplicate determinations per time point in each treatment category. […] (7F1–7F2), Time course analysis of PC-3 cells undergoing apoptosis (annexin V-FITC staining) (7F1), or necrosis (propidium iodide staining) (7F2). Values shown are mean±s.d. of quadruplicate determinations per time point in each treatment category. Control/C, cells treated with 1% ethanol for 2 h.
Apoptosis Assay—ApoAlert Annexin V apoptosis detection system (Clontech Lab Inc., Palo Alto, Calif.) was used to measure the relative distribution of apoptotic and necrotic cells. Briefly, cells were seeded at a density of 1×10^6 cells per 25 cm^2 tissue culture flask in medium containing 10% FBS overnight, followed by washing twice in serum-free medium. Cells were maintained overnight in serum-free medium and exposed to tempol (10 mM) or tempo (10 mM) for various times. This was followed by rinsing twice with serum-free medium prior to trypsinization, dilution in two volumes of serum-free medium, and centrifugation at 10,000× g. The cell pellet was washed once with PBS and resuspended in 200 ul of 1× binding buffer. The cell suspension was double-labeled with fluorescein isothiocyanate (FITC)-labeled annexin V (10 ul) and propidium iodide (PI) (10 ul) according to the manufacturer's instructions. Unlabeled cells or untreated cells labeled with either FITC-annexin V or PI, or double-labeled served as internal controls for the background signal. The intensity of the dye uptake by cells was detected using FACStar plus Flow Cytometer (Becton Dickerson, Lincoln Park, N.J.), and data were analyzed using Reproman True Facts software (Seattle, Wash.). Viable cells were FITC−/PI−, apoptotic cells were FITC+/PI−, and necrotic cells were FITC+/PI+.

MDA-MB 231 cells = assay: Ceramide generation assay (DAG kinase assay); assay type: cell-based, human; details: 10 mM
Protocol: FIG. 8. Ceramide production in tempo-treated MDA-MB 231 cells. Logarithmically growing cells were cultured in serum-free medium overnight in 60 mm dishes, and treated with tempol (10 mM) and tempo (10 mM) for indicated times, followed by lipid extraction, and quantitation of ceramide by DAG kinase assay as described in experimental procedures. The organic phase extract containing the [γ^32P]-labeled ceramide was quantitated. Control cells were grown overnight in serum-free medium, followed by treatment with 1% ethanol for various times ranging from 0.5 h to 2 h. Tempol/tempo treatment values shown are the mean±s.d. of triplicate determinations, the value at each time point normalized to control (100%).
Ceramide Generation Assay—Ceramide production in MDA-MB 231 cells was determined by diacylglycerol (DAG) kinase assay according to a previously described procedure (Haimovitz-Friedman, A. et al., 1994, J. Exp. Med. 180, 525–535; Dressler, K. A. and Kolesnick, R. N., 1990, J. Biol. Chem. 265, 14917–14921). Briefly, MDA-MB 231 cells were split (1:2), and after 24 h, the cells were washed twice with PBS and serum-free medium was added, followed by incubation for additional 24 h. The cells (˜2×10^6/60 mm dish) were treated with tempo (10 mM) or tempol (10 mM) for various times. Following treatment, floating cells were collected and pelleted by centrifugation for 10 min at 1200 rpm, and attached cells were collected by scraping. Lipids were extracted from all cells (floating and attached) by incubation in 1 ml 100% ice-cold methanol. After a partial purification with chloroform, the extracted lipid in the organic phase was dried under N2 and was treated with a mild alkaline solution (0.1 N KOH in methanol) for 1 h at 37° C. to remove glycerolphospholipids. […] The spot containing the ceramide-1-phosphate was visualized by autoradiography, and the incorporated ^32P was removed by scraping, and quantified by Cerenkov counting. […]

SMILES | apoptotic cells (A) (PCI-04A cells; 2 h) | viable cells (V) (PCI-04A cells; 2 h) | apoptosis and necrosis (PCI-04A cells; 2 h post-treatment) | increase over control in ceramide level (MDA-MB 231 cells; 30 min, control normalized to 100%) | ceramide level over control (MDA-MB 231 cells; 1 h, control normalized to 100%) | level of ceramide generated compared to control cells (MDA-MB 231 cells; all time points)
CC1(C)CCCC(C)(C)N1[O] [tempo, 2,2,6,6-tetramethylpiperidine-N-oxyl] | 48.35% | 18.61% | significant level of apoptosis and necrosis | 54% | 71% | –
CC1(C)CC(O)CC(C)(C)N1[O] [tempol, 4-hydroxy-tempo, reference compound] | 5.44% | – | – | – | – | not significantly higher
